Results on one compound are retold here after publication PMC4980415 (Psychopharmacology, 2016).

Structures can show the parent of a compound that is named as a salt.

For data set [1] the following is noted: healthy volunteers and patients with schizophrenia; no reference given; cited from earlier work.
Data set [2] relates to memory retrieval in male Wistar rats. Description: Novel object recognition (NOR): retrieval, drug 2 h before T2. It is filed as in vivo, rat. Particulars: for Exploration time e1 (T1) / Exploration time e2 (T2): 2 h before T2, 24 h interval. How it is done:
The drug was administered, per os (po), by gavage to rats in a volume of 2 ml/kg body weight. Oral dosing solutions were prepared fresh daily. […] The pH of the dosing solution was adjusted to ~pH 5.5 by dropwise addition of 0.1 N NaOH in saline and volume adjusted by addition of saline in preparation for intraperitoneal (ip) dosing. […] Control treatments were always the vehicle solutions of the corresponding drugs.
The object recognition test was performed as described elsewhere (Ennaceur and Delacour [1988]; Akkerman et al. 2014). The apparatus consisted of a circular arena, 83 cm in diameter. Half of the 40-cm-high wall was made of gray polyvinyl chloride, the other half of transparent polyvinyl chloride. The light intensity was equal in the different parts of the apparatus, as fluorescent red tubes provided a constant illumination of about 20 lx on the floor of the apparatus. Two objects were placed in a symmetrical position at about 10 cm from the gray wall. Four different sets of objects were used. The different objects were (1) a cone consisting of a gray polyvinyl chloride base (maximal diameter 18 cm) with a collar on top made of brass (total height 16 cm), (2) a standard 1 L transparent glass bottle (diameter 10 cm, height 22 cm) filled with water, (3) a large metal cube (10.0 × 5.0 × 7.5 cm) with two holes (diameter 1.9 cm), and (4) a large aluminum cube with a tapering top (13.0 × 8.0 × 8.0 cm). The objects used in this study were carefully selected to be “novelty neutral,” that is to say the rats have no innate preference for one over the other. In all cases, objects were of sufficient size and weight that rats could not move the objects.
A testing session consisted of two trials. The duration of each trial was 3 min. During the first trial (T1), the apparatus contained two identical objects (samples). Rats were placed in the apparatus facing the wall at the middle of the front (transparent) segment. After the first exploration period, the rat was put back in its home cage. Subsequently, after a 24-h delay interval, the rat was put in the apparatus for the second trial (T2). The times spent in exploring each object during T1 and T2 were recorded manually using a personal computer.
Exploration was defined as follows: directing the nose to the object at a distance of no more than 2 cm and/or touching the object with the nose. Sitting on the object was not considered as exploratory behavior. In order to avoid the presence of olfactory cues, the objects were always thoroughly cleaned with a 70 % ethanol solution before each trial. All combinations and locations of objects were used in a balanced manner to reduce potential biases due to preferences for particular locations or objects.
During the first 2 weeks after animal arrival, the animals were handled daily. They were then adapted to the procedure over the period of 2 days by allowing them to explore the apparatus (without any objects) for 3 min twice each day. […] After this, the rats were assigned to treatment conditions in a balanced manner, thereby insuring an equal distribution of object combinations among the treatment conditions. […] In all experiments, a 24-h inter-trial interval was used. In all cases, the experimenter was unaware of the treatment conditions that were being tested.
The basic measure recorded was the time spent by each rat exploring an object during T1 and T2. The time spent in exploring the two identical samples was represented by “a1” and “a2.” The time spent in T2 in exploring the sample and new object was represented by “a” and “b,” respectively. The following variables were calculated: e1 = a1 + a2, e2 = a + b, and d2 = (b − a) / e2. The e1 and e2 are measures of the total exploration time of both objects during T1 and T2, respectively. Differences in exploration times between treatment conditions were analyzed using a t test or one-way ANOVA. […]

Data set [3] concerns Alpha 2 (non-selective), adrenergic. Description: Off-target binding, General SEP II panel. The note with it: 10 μM ITI-214, mean of n = 2.
The test system of data set [4] is 70 key receptor, enzyme, and ion channel proteins. As to the kind of experiment: 70-target diversity panel (SEP II), whole panel. It counts as binding. Particulars: 10 μM, 70-target panel.

In the case of `CN1C(=O)c2c(nn(Cc3ccc(-c4cccc(F)n4)cc3)c2Nc2ccccc2)N2C1=N[C@@H]1CCC[C@@H]12` [ITI-214, (6aR,9aS)-2-(4-(6-fluoropyridin-2-yl)benzyl)-5-methyl-3-(phenylamino)-5,6a,7,8,9,9a-hexahydrocyclopenta-[4,5]imidazo[1,2-a]pyrazolo[4,3-e]pyrimidin-4-(2H)-one phosphate salt], in data set [1], the safety and tolerability entry is “safe and well-tolerated”. In addition, the “Exploration time e1 (T1)” value in data set [2] (0.1 mg/kg po) is given as 29.32 (1.82) s; in data set [2] (0.3 mg/kg po), 28.83 (1.84) s; in data set [2] (1 mg/kg po), 26.81 (1.72) s; in data set [2] (3 mg/kg po) it was 27.20 (1.90) s; in data set [2] (10 mg/kg po) it was 30.59 (1.98) s. Besides, the “Exploration time e2 (T2)” value was 28.78 (2.08) s in data set [2] (0.1 mg/kg po); 29.31 (1.52) s in data set [2] (0.3 mg/kg po); 33.64 (2.35) s in data set [2] (1 mg/kg po); 28.60 (1.13) s in data set [2] (3 mg/kg po); 30.52 (1.87) s in data set [2] (10 mg/kg po). In data set [2] (po 2 h before T2), the “full effective dose (d2 different from chance and from vehicle), retrieval” value stood at 1 mg/kg. Also, the “effect on exploratory behavior during T1 or T2” value in data set [2] (retrieval and combined sub-threshold dose experiments) was “no effect on exploratory behavior”. For the same compound, in data set [3], the “% Binding” value is given as 34.94%. Besides, the “number of panel targets showing >50 % binding” value in data set [4] is 4.
